Laboratory results from patent publication US4751217A, “Physiologically active substances named SEN-366” (Nippon Shinyaku Co., Ltd., priority 1984, dated 1988).
Values after ≈ are worked out from the molar mass of the structure shown. “Also recorded” adds a separate entry of the source. Each block holds one compound with its values, some of them ahead of it.

Legend:
[1] = tested on: platelet aggregation (collagen); assay: Inhibitory action against platelet aggregation, inducer collagen; format: cell-based; conditions: for IC50: Oryctolagus cuniculus, Platelet, collagen 10 μg/ml, rabbit PRP; for IC50 Collagen 10 μg/ml: Table 2, rabbit PRP
Procedure: (§1) Inhibitory Action against Platelet Aggregation:
(§2) (1) Materials and Method:
(§3) The sample is tested after dissolved in dimethyl sulfoxide. The preparation is conducted so as to make the final concentration of the solvent 1%. Dimethyl sulfoxide of the same concentration is used as a control. As to inducers for platelet aggregation, ADP (final concentration: 5 μm), AA (arachidonic acid) (final concentration: 150 μM) and collagen (final concentration: 10 μg/ml) are used.
(§4) (2) Preparation of platelet:
Blood is taken from total neck artery of male rabbits of 2.0-2.5 kg body weight. […] The precipitate is further centrifuged at 1600×g for 10 minutes and the resulting supernatant liquid is used as plasma with poor platelet (hereinafter abbreviated as PPP).
(§5) (3) Method for Measuring Aggregation Power:
(§6) A measuring apparatus for platelet aggregation is used and the changes in absorbancy by the aggregation with an elapse of time are recorded.
(§7) Thus, 200 microliters of PRP is taken, its difference between PPP is adjusted to a certain value, then 25 microliters of control solution or test solution is added, the mixture is stirred (1000 rpm) for 1 minutes, 25 microliters of aggregation inducer is added, and the changes in absorbancy are recorded. The inhibitory ratio is calculated from the following expression from the maximum aggregation ratio of the control (A in %) and that of the test solution (B in %): [formula]
as §3, with “μM),” for “μm),”
(§8) Blood is taken from total neck artery of male rabbits of 2.0-2.5 kg body weight. To the blood is added 1/10 volume of 3.8% citric acid solution, the mixture is gently stirred, centrifuged 1300×g for 2 minutes, and the resulting supernatant liquid is used as plasma with abundant platelet (hereinafter abbreviated as PRP). The precipitate is further centrifuged at 1600×g for 10 minutes and the resulting supernatant liquid is used as plasma with poor platelet (hereinafter abbreviated as PPP).
as §7, with “minute,” for “minutes,”

[2] = tested on: platelet aggregation (ADP); assay: Inhibitory action against platelet aggregation, inducer ADP; format: cell-based; conditions: for IC50: Oryctolagus cuniculus, Platelet, ADP 5 μM, rabbit PRP; for IC50 ADP 5 μM: Table 2, rabbit PRP
Procedure: as §1, §2, §3, §4
as §8, with “sodium citrate” for “citric acid”
as §5, §6, §7
(§9) Inhibitory ratios with varied test solution concentrations are calculated and the IC50 (50% inhibitory concentration) is calculated therefrom.
as §3, with “μM),” for “μm),”
as §8
as §7, with “minute,” for “minutes,”

[3] = tested on: platelet aggregation (AA); assay: Inhibitory action against platelet aggregation, inducer arachidonic acid (AA); format: cell-based; conditions: for IC50: Oryctolagus cuniculus, Platelet, AA 150 μM, rabbit PRP; for IC50 AA 150 μM: Table 2, rabbit PRP
Procedure: as §1, §2, §3, §4
as §8, with “sodium citrate” for “citric acid”
as §5, §6, §7, §9
as §3, with “μM),” for “μm),”
as §8
as §7, with “minute,” for “minutes,”

[4] = Solubility; format: physicochemical; conditions: qualitative, in named solvents

IC50 Collagen 10 μg/ml ([1]; listed as E1): 2.0 µg/mL (≈ 5.2 µM)
IC50 ([2]; Table 2): 7.2 µg/mL (≈ 18.7 µM)
IC50 ([3]; Table 2): 10.3 µg/mL (≈ 26.8 µM)
Compound: CCOC1CCC(OC2CCC(OC3C=CC(=O)C(C)O3)C(C)O2)C(C)O1 (stereo not shown) [SEN-366-E1]

IC50 Collagen 10 μg/ml ([1]; listed as E3): 4.4 µg/mL (≈ 11.4 µM)
IC50 ADP 5 μM ([2]; listed as E3): 12.4 µg/mL (≈ 32.3 µM)
IC50 AA 150 μM ([3]; listed as E3): 14.0 µg/mL (≈ 36.4 µM)
Compound: CCOC1CCC(OC2CCC(OC3C=CC(=O)C(C)O3)C(C)O2)C(C)O1 (stereo not shown) [SEN-366-E3]

IC50 ([1]; Table 2): 5.5 µg/mL (≈ 14.8 µM)
IC50 ([2]; Table 2): 17 µg/mL (≈ 45.9 µM)
IC50 ([3]; Table 2): 29 µg/mL (≈ 78.3 µM)
Compound: COC1CCC(OC2CCC(OC3C=CC(=O)C(C)O3)C(C)O2)C(C)O1 (stereo not shown) [SEN-366-M1]

IC50 Collagen 10 μg/ml ([1]; listed as M3): 5.2 µg/mL (≈ 14 µM)
IC50 ADP 5 μM ([2]; listed as M3): 15.0 µg/mL (≈ 40.5 µM)
IC50 AA 150 μM ([3]; listed as M3): 25.0 µg/mL (≈ 67.5 µM)
Compound: COC1CCC(OC2CCC(OC3C=CC(=O)C(C)O3)C(C)O2)C(C)O1 (stereo not shown) [SEN-366-M3]

Second part, the compound before the results:

Compound: CC1OC(OC2CCC(OC3CCC(OC(=O)c4ccc(Cl)cc4)OC3C)OC2C)CCC1=O (stereo not shown) [SEN-366-CB2]
IC50 ([1]; Table 2): 1 µg/mL (≈ 2.01 µM)
IC50 ([2]; Table 2): 3.2 µg/mL (≈ 6.44 µM)
IC50 ([3]; Table 2): 6.2 µg/mL (≈ 12.5 µM)

Compound: CC1OC(OC2CCC(OC3CCC(OC(=O)c4ccc(Cl)cc4)OC3C)OC2C)C=CC1=O (stereo not shown) [SEN-366-CB3]
IC50 Collagen 10 μg/ml ([1]; listed as CB3): 0.053 µg/mL (≈ 0.107 µM)
IC50 ADP 5 μM ([2]; listed as CB3): 0.29 µg/mL (≈ 0.586 µM)
IC50 AA 150 μM ([3]; listed as CB3): 0.68 µg/mL (≈ 1.37 µM)

Compound: CC1OC(OC2CCC(OC3CCC(OC(=O)c4ccc(Cl)cc4)OC3C)OC2C)CCC1=O (stereo not shown) [SEN-366-CB4]
IC50 Collagen 10 μg/ml ([1]; listed as CB4): 1.7 µg/mL (≈ 3.42 µM)
IC50 ADP 5 μM ([2]; listed as CB4): 4.2 µg/mL (≈ 8.45 µM)
IC50 AA 150 μM ([3]; listed as CB4): > 5 µg/mL

Compound: CCOC1CCC(OC2CCC(OC3CCC(=O)C(C)O3)C(C)O2)C(C)O1 (stereo not shown) [SEN-366-E2]
IC50 ([1]; Table 2): 22.1 µg/mL (≈ 57.2 µM)
IC50 ([2]; Table 2): > 100 µg/mL
IC50 ([3]; Table 2): 52 µg/mL (≈ 135 µM)

Compound: CCOC1CCC(OC2CCC(OC3CCC(=O)C(C)O3)C(C)O2)C(C)O1 (stereo not shown) [SEN-366-E4]
IC50 Collagen 10 μg/ml ([1]; listed as E4): 16.5 µg/mL (≈ 42.7 µM)
IC50 ADP 5 μM [2]: > 100 µg/mL
IC50 AA 150 μM ([3]; listed as E4): 65.0 µg/mL (≈ 168 µM)

Compound: CC1OC(OC2CCC(O)OC2C)C=CC1=O (stereo not shown) [SEN-366-F0]
IC50 ([1]; Table 3): 1.5 µg/mL (≈ 6.19 µM)
IC50 ([2]; Table 3): 9.3 µg/mL (≈ 38.4 µM)
IC50 ([3]; Table 3): 3.4 µg/mL (≈ 14 µM)

Compound: CC1OC(OC2CCC(OC3CCC(=O)OC3C)OC2C)C=CC1=O (stereo not shown) [SEN-366-L1]
IC50 ([1]; Table 2): 5 µg/mL (≈ 14.1 µM)
IC50 ([2]; Table 2): 12 µg/mL (≈ 33.9 µM)
IC50 ([3]; Table 2): 27 µg/mL (≈ 76.2 µM)

Compound: COC1CCC(OC2CCC(OC3CCC(=O)C(C)O3)C(C)O2)C(C)O1 (stereo not shown) [SEN-366-M2]
IC50 ([1]; Table 2): 16.3 µg/mL (≈ 43.8 µM)
IC50 ([2]; Table 2): 55 µg/mL (≈ 148 µM)
IC50 ([3]; Table 2): 42 µg/mL (≈ 113 µM)

Compound: COC1CCC(OC2CCC(OC3CCC(=O)C(C)O3)C(C)O2)C(C)O1 (stereo not shown) [SEN-366-M4]
IC50 Collagen 10 μg/ml ([1]; listed as M4): 18.0 µg/mL (≈ 48.3 µM)
IC50 ADP 5 μM ([2]; listed as M4): 53.0 µg/mL (≈ 142 µM)
IC50 AA 150 μM ([3]; listed as M4): 47.0 µg/mL (≈ 126 µM)

Compound: CC1OC(OC2CCC(OC3CCC(O)OC3C)OC2C)C(O)CC1=O (stereo not shown) [SEN-366-P]
IC50 ([1]; Table 1): 1.6 µg/mL (≈ 4.27 µM)
IC50 ([2]; Table 1): 4.4 µg/mL (≈ 11.8 µM)
IC50 ([3]; Table 1): 25 µg/mL (≈ 66.8 µM)
Solubility [4]: Soluble in water, methanol, ethanol, chloroform, acetone and ethyl acetate; also recorded: hardly soluble in petroleum ether and n-hexane
